In patent US5106407A, “Iodones and methods for antimicrobial use” (priority 1989, dated 1992):

Legend:
[1] = test system: bacteria listed in Table I, Klebsiella oxytoca, Enterobacter gergoviae, Pseudomonas putida #1, and Pseudomonas putida #2; assay: hand lotion preservation test
Protocol: (§1) Fifty gram aliquots of the latex were placed in sterile bottles and one hundred gram aliquots of the diluted cutting oil were placed in 250-mL Erlenmeyer flasks. An appropriate amount of a fresh 1 percent stock solution of (2-nitrophenyl)-iodonium 2,2-dimethyl-4,6-dioxo-1,3-dioxan-5-ylide in acetone-water was added to achieve the desired final concentrations (see Tables 5 and 6). A small portion of the respective latex or cutting oil preparation was then streaked onto Tryptic Soy Agar (TSA) petri plates using sterile cotton swabs to determine whether the preparations were sterile. If the particular preparation was sterile, it was then inoculated with an appropriate volume (0.1 mL for the latex and 0.2 mL for the cutting oil) of a mixture of equal aliquots of 24 hr cultures of each of the bacterial organisms listed in Table 1 (not the fungi and yeast). The latex samples were incubated at 30° C. and the cutting oils were agitated on a rotary shaker at room temperature. After 24 hr, all samples were again streaked on TSA. All plates were then incubated at 30° C. for 48 hr and then rated 1 to 10 according to the growth rating system described in Table 4.
(§2) The results from this first set of streaks after inoculation are listed in the columns labeled streak number 1 in Tables 5 and 6. Samples with a rating of 3 or less from streak number 1 were reinoculated as described for the first inoculation above. Samples with a rating of 4 or greater were not reinoculated. After another 24 hr all samples were again restreaked on TSA agar. The results from these second streaks were labeled streak number 2 in Tables 5 and 6. Samples were reinoculated and restreaked in this fashion for a maximum of 10 streaks. Any samples with two streaks in a row with a ten rating were not restreaked again.
The ingredients of the hand creme, hand lotion, and protein shampoo are listed in Tables 7, 8 and 9, respectively. In the cosmetic preservative procedures, the stock solution of (2-nitrophenyl)-iodonium 2,2-dimethyl-4,6-dioxo-1,3-dioxan-5-ylide) was made in dimethylformamide (DMF)/water solution. In addition to the bacteria listed in Table I, the following bacteria were also included in the inocula: Klebsiella oxytoca, Enterobacter gergoviae, Pseudomonas putida #1, and Pseudomonas putida #2.

[2] = test system: mixture of bacterial organisms listed in Table 1; assay: cutting oil preservation test
Protocol: as §1, §2
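Further: colony count scale from 1 for no colonies up to 10 for a solid mass.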

For `CC1(C)OC(=O)[C-]([I+]c2ccccc2[N+](=O)[O-])C(=O)O1` [Example 19, (2-Nitrophenyl)-iodonium 2,2-dimethyl-4,6-dioxo-1,3-dioxan-5-ylide], the growth rating ([1]; 10 ppm, streak 1) was 1 (0), the growth rating ([1]; 10 ppm, streak 2) was 1 (0) and the growth rating ([1]; 10 ppm, streak 3) was 2 (1-4). It also gave a growth rating ([1]; 10 ppm, streak 6) of 9, a growth rating ([1]; 10 ppm, streak 8) of 9 and a growth rating ([1]; 10 ppm, streak 9) of 10. The growth rating ([1]; 10 ppm, streak 10) was 10, the growth rating ([1]; 25 ppm, streak 1) was 1 (0) and the growth rating ([1]; 25 ppm, streak 2) was 1 (0). For the same compound, the growth rating ([1]; 25 ppm, streak 3) was 1 (0), the growth rating ([1]; 25 ppm, streak 4) was 1 (0) and the growth rating ([1]; 25 ppm, streak 5) was 1 (0). The growth rating ([1]; 25 ppm, streak 6) was 1 (0), the growth rating ([1]; 25 ppm, streak 7) was 1 (0) and the growth rating ([1]; 25 ppm, streak 8) was 1 (0). The growth rating ([1]; 25 ppm, streak 9) was 1 (0), the growth rating ([1]; 25 ppm, streak 10) was 2 (1-4) and the growth rating ([1]; 50 ppm, streak 1) was 1 (0). For the same compound, the growth rating ([1]; 50 ppm, streak 2) was 1 (0), the growth rating ([1]; 50 ppm, streak 3) was 1 (0) and the growth rating ([1]; 50 ppm, streak 4) was 1 (0). The growth rating ([1]; 50 ppm, streak 5) was 1 (0), the growth rating ([1]; 50 ppm, streak 6) was 1 (0) and the growth rating ([1]; 50 ppm, streak 7) was 1 (0). For the same compound, the growth rating ([1]; 50 ppm, streak 8) was 1 (0), the growth rating ([1]; 50 ppm, streak 9) was 1 (0) and the growth rating ([1]; 50 ppm, streak 10) was 1 (0). The growth rating ([1]; 100 ppm, streak 1) was 1 (0), the growth rating ([1]; 100 ppm, streak 2) was 1 (0) and the growth rating ([1]; 100 ppm, streak 3) was 1 (0). For the same compound, the growth rating ([1]; 100 ppm, streak 4) was 1 (0), the growth rating ([1]; 100 ppm, streak 5) was 1 (0) and the growth rating ([1]; 100 ppm, streak 6) was 1 (0). For the same compound, the growth rating ([1]; 100 ppm, streak 7) was 1 (0), the growth rating ([1]; 100 ppm, streak 8) was 1 (0) and the growth rating ([1]; 100 ppm, streak 9) was 1 (0). For the same compound, the growth rating ([1]; 100 ppm, streak 10) was 1 (0), the growth rating ([2]; 25 ppm, streak 1) was 1 (0) and the growth rating ([2]; 25 ppm, streak 2) was 9. For the same compound, the growth rating ([2]; 25 ppm, streak 3) was 10, the growth rating ([2]; 25 ppm, streak 4, restreaking not continued) was 10 and the growth rating ([2]; 50 ppm, streak 1) was 1 (0). The growth rating ([2]; 50 ppm, streak 2) was 2 (1-4), the growth rating ([2]; 50 ppm, streak 3) was 10 and the growth rating ([2]; 50 ppm, streak 4, restreaking not continued) was 10. For the same compound, the growth rating ([2]; 100 ppm, streak 1) was 1 (0), the growth rating ([2]; 100 ppm, streak 2) was 2 (1-4) and the growth rating ([2]; 100 ppm, streak 3) was 2 (1-4). For the same compound, the growth rating ([2]; 100 ppm, streak 4) was 1 (0), the growth rating ([2]; 100 ppm, streak 5) was 10 and the growth rating ([2]; 100 ppm, streak 6, restreaking not continued) was 10. The growth rating ([2]; 250 ppm, streak 1) was 1 (0), the growth rating ([2]; 250 ppm, streak 2) was 1 (0) and the growth rating ([2]; 250 ppm, streak 3) was 1 (0). The growth rating ([2]; 250 ppm, streak 4) was 1 (0), the growth rating ([2]; 250 ppm, streak 5) was 1 (0) and the growth rating ([2]; 250 ppm, streak 6) was 1 (0). The growth rating ([2]; 250 ppm, streak 7) was 1 (0), the growth rating ([2]; 250 ppm, streak 8) was 1 (0) and the growth rating ([2]; 250 ppm, streak 9) was 6 (51-100). The growth rating ([2]; 250 ppm, streak 10) was 10, the growth rating ([2]; 500 ppm, streak 1) was 1 (0) and the growth rating ([2]; 500 ppm, streak 2) was 1 (0). For the same compound, the growth rating ([2]; 500 ppm, streak 3) was 1 (0), the growth rating ([2]; 500 ppm, streak 4) was 1 (0) and the growth rating ([2]; 500 ppm, streak 5) was 1 (0). For the same compound, the growth rating ([2]; 500 ppm, streak 6) was 1 (0), the growth rating ([2]; 500 ppm, streak 7) was 1 (0) and the growth rating ([2]; 500 ppm, streak 8) was 1 (0). The growth rating ([2]; 500 ppm, streak 9) was 1 (0), the growth rating ([2]; 500 ppm, streak 10) was 1 (0) and the growth rating ([2]; 1000 ppm, streak 1) was 1 (0). The growth rating ([2]; 1000 ppm, streak 2) was 1 (0), the growth rating ([2]; 1000 ppm, streak 3) was 1 (0) and the growth rating ([2]; 1000 ppm, streak 4) was 1 (0). The growth rating ([2]; 1000 ppm, streak 5) was 1 (0), the growth rating ([2]; 1000 ppm, streak 6) was 1 (0) and the growth rating ([2]; 1000 ppm, streak 7) was 1 (0). For the same compound, the growth rating ([2]; 1000 ppm, streak 8) was 1 (0), the growth rating ([2]; 1000 ppm, streak 9) was 1 (0) and the growth rating ([2]; 1000 ppm, streak 10) was 1 (0).
